Assays:
human cathepsin K = human cathepsin K (UniProt P43236); assay: Cathepsin K Assay (hrbCat K); assay type: biochemical; details: human cathepsin K 0.4 nM, Z-Leu-Arg-AMC 8 μM, pH 5.5, 15 min preincubation; read-out: hrbCat K IP
Outline: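 Human cathepsin K (0.4 nM) in pH 5.5 MES buffer with EDTA, DTT and 10% DMSO was preincubated 15 min at room temperature with compound from a ⅓ dilution series (500-0.025 μM DMSO stocks). Z-Leu-Arg-AMC (8 μM) was then added, and AMC release was followed fluorometrically (Ex 360/Em 460 nm) for 30 min; inhibition was fitted to a dose-response model.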

human cathepsin F = molecular target: T1, human cathepsin F (Homo sapiens, UniProt Q9UBX1); assay: Cathepsin F assay (hCat F); assay type: biochemical; details: human cathepsin F 10 nM, Z-Phe-Arg-AMC 8 μM, pH 5.5, 15 min preincubation; read-out: hCat F IP
T1 sequence (Q9UBX1 271-484): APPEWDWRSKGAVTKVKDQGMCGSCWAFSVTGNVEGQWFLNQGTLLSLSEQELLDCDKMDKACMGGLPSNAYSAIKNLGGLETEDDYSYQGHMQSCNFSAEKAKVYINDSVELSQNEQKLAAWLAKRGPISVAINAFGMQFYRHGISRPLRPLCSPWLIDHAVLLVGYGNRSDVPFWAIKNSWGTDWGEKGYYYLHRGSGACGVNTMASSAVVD
Outline: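 Human cathepsin F (10 nM) in 50 mM MES pH 5.5, 2.5 mM EDTA, 2.5 mM DTT, 10% DMSO was preincubated 15 min at RT with compounds from a ⅓ DMSO dilution series (500–0.025 μM stocks). Z-Phe-Arg-AMC was added (8 μM as added), and AMC release was read by fluorescence (360/460 nm) for 20 min. Percent inhibition was fitted to a dose-response model.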

| Compound | IC50 (human cathepsin K) [µM] | IC50 (human cathepsin F) [µM] |
| --- | --- | --- |
| N#CC1(NC(=O)[C@@H]2C[C@@H](F)CC[C@H]2c2oc(-c3ccc(F)cc3)nc2-c2ccc(N3CCS(=O)(=O)CC3)cc2)CC1 [Example 31, (1R,2R,5S)-N-(1-cyanocyclopropyl)-2-(4-(4-(1,1-dioxidothiomorpholino)phenyl)-2-(4-fluorophenyl)oxazol-5-yl)-5-fluorocyclohexane-carboxamide] | 0.00061 | 1.39 |
| N#CC1(NC(=O)[C@@H]2CCCC[C@H]2c2oc(-c3ccc(F)cn3)nc2-c2ccc(N3CCS(=O)(=O)CC3)cc2)CC1 [Example 32, (1R,2R)-N-(1-cyanocyclopropyl)-2-(4 (4-(1,1-dioxidothiomorpholino)phenyl)-2-(5-fluoropyridin-2-yl)oxazol-5-yl)cyclohexanecarboxamide] | 0.00312 | 2.49 |
| N#CC1(NC(=O)[C@@H]2CCCC[C@H]2c2oc(-c3cncc(F)c3)nc2-c2ccc(N3CCS(=O)(=O)CC3)cc2)CC1 [Example 33, (1R,2R)-N-(1-cyanocyclopropyl)-2-(4-(4-(1,1-dioxidothiomorpholino)phenyl)-2-(5-fluoropyridin-3-yl)oxazol-5-yl)cyclohexanecarboxamide] | 0.00199 | 1.32 |
| N#CC1(NC(=O)[C@@H]2CCCC[C@H]2c2oc(-c3cc(F)cc(F)c3)nc2-c2ccc(N3CCS(=O)(=O)CC3)cc2)CC1 [Example 34, (1R,2R)-N-(1-cyanocyclopropyl)-2-(2-(3,5-difluorophenyl)-4-(4-(1,1-dioxidothiomorpholino)phenyl)oxazol-5-yl) cyclohexanecarboxamide] | 0.00085 | 0.442 |
| N#CC1(NC(=O)[C@@H]2CCCC[C@H]2c2oc(-c3cncnc3)nc2-c2ccc(N3CCS(=O)(=O)CC3)cc2)CC1 [Example 35, (1R,2R)-N-(1-cyanocyclopropyl)-2-(4-(4-(1,1-dioxidothiomorpholino)phenyl)-2-(pyrimidin-5-yl)oxazol-5-yl) cyclohexanecarboxamide] | 0.00111 | 0.993 |
| N#CC1(NC(=O)[C@@H]2CCCC[C@H]2c2oc(-c3ccc(F)c(Cl)c3)nc2-c2ccc(N3CCS(=O)(=O)CC3)cc2)CC1 [Example 36, (1R,2R)-2-(2-(3-chloro-4-fluorophenyl)-4-(4-(1,1-dioxidothiomorpholino)phenyl)oxazol-5-yl)-N-(1-cyanocyclopropyl) cyclohexanecarboxamide] | 0.00094 | 0.382 |
| N#CC1(NC(=O)[C@@H]2CCCC[C@H]2c2oc(-c3ccc(F)cc3Cl)nc2-c2ccc(N3CCS(=O)(=O)CC3)cc2)CC1 [Example 37, (1R,2R)-2-(2-(2-chloro-4-fluorophenyl)-4-(4-(1,1-dioxidothiomorpholino)phenyl)oxazol-5-yl)-N-(1-cyanocyclopropyl) cyclohexanecarboxamide] | 0.00072 | 0.353 |
| N#CC1(NC(=O)[C@@H]2CCCC[C@H]2c2oc(-c3ccc(Cl)cc3)nc2-c2ccc(N3CCS(=O)(=O)CC3)cc2)CC1 [Example 38, (1R,2R)-2-(2-(4-chlorophenyl)-4-(4-(1,1-dioxidothiomorpholino)phenyl)oxazol-5-yl)-N-(1-cyanocyclopropyl) cyclohexanecarboxamide] | 0.00128 | 0.308 |
| CS(=O)(=O)C1CN(c2ccc(-c3nc(-c4ccc(F)cc4F)oc3[C@@H]3CCCC[C@H]3C(=O)NC3(C#N)CC3)cc2)C1 [Example 39, (1R,2R)-N-(1-cyanocyclopropyl)-2-(2-(2,4-difluorophenyl)-4-(4-(3-(methylsulfonyl)azetidin-1-yl)phenyl)oxazol-5-yl) cyclohexanecarboxamide] | 0.00211 | 0.702 |
| N#CC1(NC(=O)[C@@H]2CCCC[C@H]2c2oc(-c3ccc(C(F)(F)F)nc3)nc2-c2ccc(N3CCS(=O)(=O)CC3)cc2)CC1 [Example 40, (1R,2R)-N-(1-cyanocyclopropyl)-2-(4-(4-(1,1 dioxidothiomorpholino)phenyl)-2-(6-(trifluoromethyl)pyridin-3-yl)oxazol-5-yl)cyclohexane carboxamide] | 0.00142 | 2.22 |
| N#CC1(NC(=O)[C@@H]2C[C@@H](F)CC[C@H]2c2oc(-c3ccc(F)cc3F)nc2-c2ccc(N3CCS(=O)(=O)CC3)cc2)CC1 [Example 41, (1R,2R,5S)-N-(1-cyanocyclopropyl)-2-(2-(2,4-difluorophenyl)-4-(4-(1,1-dioxidothiomorpholino)phenyl)oxazol-5-yl)-5-fluorocyclohexane-carboxamide] | 0.00141 | 2.19 |
| N#CC1(NC(=O)[C@@H]2C[C@@H](F)CC[C@H]2c2oc(C(F)(F)C(F)(F)F)nc2-c2ccc(N3CCS(=O)(=O)CC3)cc2)CC1 [Example 42, (1R,2R,5S)-N-(1-cyanocyclopropyl)-2-(4-(4-(1,1-dioxidothiomorpholino)phenyl)-2-(perfluoroethyl)oxazol-5-yl)-5-fluorocyclohexane-carboxamide] | 0.00241 | 1.86 |
| CC(C)(C#N)NC(=O)[C@@H]1CCCC[C@H]1c1oc(-c2ccc(F)cc2F)nc1-c1ccc(N2CCS(=O)(=O)CC2)cc1 [Example 43, (1R,2R)-N-(2-cyanopropan-2-yl)-2-(2-(2,4-difluorophenyl)-4-(4-(1,1-dioxidothiomorpholino)phenyl)oxazol-5-yl)cyclohexanecarboxamide] | 0.0157 | 1.65 |
| N#CCNC(=O)[C@@H]1CCCC[C@H]1c1oc(-c2ccc(F)cc2F)nc1-c1ccc(N2CCS(=O)(=O)CC2)cc1 [Example 44, (1R,2R)-N-(cyanomethyl)-2-(2-(2,4-difluorophenyl)-4-(4-(1,1-dioxidothiomorpholino)phenyl)oxazol-5-yl)cyclohexanecarboxamide] | 0.00067 | 0.229 |
| CN(C(=O)OC(C)(C)C)c1ccc(-c2nc(-c3ccc(F)cc3)oc2[C@@H]2CCCC[C@H]2C(=O)NC2(C#N)CC2)cc1 [Example 48, tert-butyl (4-(5-((1R,2R)-2-((1-cyanocyclopropyl)carbamoyl)cyclohexyl)-2-(4-fluorophenyl)oxazol-4-yl)phenyl)(methyl)carbamate] | 0.0074 | 0.176 |
| CC(C)(C)OC(=O)Nc1ccc(-c2nc(-c3ccc(F)cc3)oc2[C@@H]2CCCC[C@H]2C(=O)NC2(C#N)CC2)cc1 [Example 49, tert-butyl (4-(5-((1R,2R)-2-((1-cyanocyclopropyl)carbamoyl)cyclohexyl)-2-(4-fluorophenyl)oxazol-4-yl)phenyl)carbamate] | 0.00401 | 1.34 |
| N#CC1(NC(=O)[C@@H]2CCCC[C@H]2c2oc(Cc3ccccc3)nc2-c2ccc(N3CCS(=O)(=O)CC3)cc2)CC1 [Example 50, (1R,2R)-2-(2-benzyl-4-(4-(1,1-dioxidothiomorpholino)phenyl)oxazol-5-yl)-N-(1-cyanocyclopropyl) cyclohexanecarboxamide] | 0.0016 | 0.698 |
| N#CC1(NC(=O)[C@@H]2CCCC[C@H]2c2oc(CC3CCCCC3)nc2-c2ccc(N3CCS(=O)(=O)CC3)cc2)CC1 [Example 51, (1R,2R)-N-(1-cyanocyclopropyl)-2-(2-(cyclohexylmethyl)-4-(4-(1,1-dioxidothiomorpholino)phenyl)oxazol-5-yl)cyclohcxanecarboxamide] | 0.00169 | 0.4 |
| CC1(c2nc(-c3ccc(N4CCS(=O)(=O)CC4)cc3)c([C@@H]3CCCC[C@H]3C(=O)NC3(C#N)CC3)o2)CCC(F)(F)CC1 [Example 52, (1R,2R)-N-(1-cyanocyclopropyl)-2-(2-(4,4-difluoro-1-methylcyclohexyl)-4-(4-(1,1-dioxidothiomorpholino)phenyl)oxazol-5-yl)cyclohexanecarboxamide] | 0.00251 | 0.82 |
| CC1(c2nc(-c3ccc(N4CCS(=O)(=O)CC4)cc3)c([C@@H]3CCCC[C@H]3C(=O)NC3(C#N)CC3)o2)CC[Si](C)(C)CC1 [Example 53, (1R,2R)-N-(1-cyanocyclopropyl)-2-(4-(4-(1,1-dioxidothiomorpholino)phenyl)-2-(1,1,4-trimethylsilinan-4-yl)oxazol-5-yl)cyclohexanecarboxamide] | 0.00193 | 0.582 |
| Cc1nc(-c2ccc(N3CCS(=O)(=O)CC3)cc2)c([C@@H]2CCCC[C@H]2C(=O)NC2(C#N)CC2)s1 [Example 54, (1R,2R)-N-(1-cyanocyclopropyl)-2-(4-(4-(1,1-dioxidothiomorpholino)phenyl)-2-methylthiazol-5-yl)cyclohexanecarboxamide] | 0.00231 | 5.31 |
| Cc1nc(-c2ccc(N3CC(S(C)(=O)=O)C3)cc2)c([C@@H]2CCCC[C@H]2C(=O)NC2(C#N)CC2)s1 [Example 55, (1R,2R)-N-(1-cyanocyclopropyl)-2-(2-mcthyl-4-(4-(3-(methylsulfonyl)azetidin-1-yl)phenyl)thiazol-5-yl)cyclohexanecarboxamide] | 0.00415 | 5.48 |
| N#CC1(NC(=O)[C@@H]2CCCC[C@H]2c2sc(-c3ccc(F)cc3)nc2-c2ccc(N3CCS(=O)(=O)CC3)cc2)CC1 [Example 56, (1R,2R)-N-(1-cyanocyclopropyl)-2-(4-(4-(1,1-dioxidothiomorpholino)phenyl)-2-(4-fluorophenyl)thiazol-5-yl)cyclohexanecarboxamide] | 0.00319 | 0.722 |
